From paper PMC4945070 (PLoS Neglected Tropical Diseases, 2016)
Values joined by “and” are separate entries in the source; they are usually repeats but may differ in a detail not shown here. Identical values can stand only once. “Also recorded” adds a separate entry of the source. Counter-ions that a name gives are not always drawn. Like-named read-outs stand apart in the source and are kept apart here.

How the values were obtained:
[1] = biological target: H. contortus L-AChR1.3 (UNC-63, UNC-38, ACR-8, UNC-29.3) (Haemonchus contortus, UniProt A9XX24+D6MYF1+D6MYF3+D6MYF4); experiment: cell-based; design: Emax: dose or concentration left out as unconfirmed
Protocol: (§1) The H. contortus cDNAs encoding AChR subunits and ancillary proteins were available as expression clones in the pTB207 vector and C. elegans expression clones were a gift from T. Boulin.. cRNA synthesis of each construct required NheI-linearized templates and was performed with the mMessage mMachine T7 Kit (Ambion) according to the manufacturer’s instructions. cRNAs were precipitated with lithium chloride and redissolved in RNAse-free water and stored at -80°C. cRNA concentration was determined using a Nanodrop spectrophotometer (Thermo Scientific) and cRNA purity and integrity was assessed by electrophoresis through a 1% gel stained with GreenGlo nucleic acid dye (Denville Scientific Inc.).
(§2) Oocytes were collected from mature Xenopus females according to standard procedures and incubated at 19°C in a ND96 solution (NaCl 96 mM, KCl 2 mM, CaCl2 1.8 mM, MgCl2 1 mM, and HEPES 5 mM, pH 7.3 supplemented with sodium pyruvate 2.5 mM). Defolliculated oocytes were injected into the animal pole with approximately 36 nL of a cRNA mix containing 50 ng/μL of each cRNA in RNAse-free water using the Nanoject system (Drummond Scientific, Broomall, PA). Negative controls consisted of oocytes injected with RNAse-free water. Oocytes were then stored at 19°C in ND96 for 5 days to allow receptor expression. In order to prevent activation of endogenous calcium-activated chloride channels, the oocytes were incubated in ND96 supplemented with 100 μM of the calcium chelator BAPTA-AM, 4h prior to recording.
(§3) Two-electrode voltage-clamp experiments were carried out using a perfusion system connected to a flat RC-1Z chamber (Harvard Apparatus). Glass electrodes were filled with 3M KCl and checked for resistance between 1 and 3 MΩ. The oocyte bath was connected to the ground through a 3 M KCl agar bridge. Agonist and antagonists were dissolved or diluted in recording solution (100 mM NaCl, 2.5 mM KCl, 1 mM CaCl2, 5 mM HEPES, pH 7.3). All measurements were performed using a Geneclamp 500B amplifier and Digidata 1322M (Axon Instruments), oocytes were voltage-clamped at -60 mV. Drug solutions were applied to oocytes by gravity flow using perfusion syringes directly connected to the chamber. Data were collected and analyzed using Clampex 9.2 and Clampfit 9.2 (Axon Instruments, Sunnyvale, CA, USA). Traces were filtered at 30 Hz and analyzed using GraphPad Prism 5.0 software (GraphPad Software, San Diego, CA, USA). Final results are presented as means ± SE.

[2] = biological target: H. contortus L-AChR1.1 (UNC-63, UNC-38, ACR-8, UNC-29.1) (Haemonchus contortus, UniProt A9XX24+D6MYE9+D6MYF3+D6MYF4); experiment: cell-based; design: Emax: dose or concentration left out as unconfirmed
Protocol: as §1, §2, §3

[3] = biological target: H. contortus L-AChR1.4 (UNC-63, UNC-38, ACR-8, UNC-29.4) (Haemonchus contortus, UniProt A9XX24+D6MYF2+D6MYF3+D6MYF4); experiment: cell-based; type: cell-based; design: Emax: dose or concentration left out as unconfirmed; details: for Emax at 100 µM: agonists at 100 μM, normalized to 100 μM acetylcholine; for Emax at 100 µM / Emax: read-out: Max. Current ± S.E.
Protocol: as §1, §2, §3

[4] = biological target: H. contortus L-AChR1.1 with added UNC-29.2 (Haemonchus contortus, UniProt A9XX24+D6MYE9+D6MYF3+D6MYF4); experiment: Two-electrode voltage clamp of L-AChR1.1 supplemented with unc-29.2 cRNA in Xenopus oocytes; type: cell-based; details: for effect of unc-29.2 cRNA on the pharmacological response: 0.2, 1, 5 times unc-29.2 cRNA relative to UNC-29.1
Excerpt: Typically, such a situation can be identified by a change in the pharmacological properties of a receptor with addition of the second subunit. To address this, we examined the possibility that UNC-29.2 may interfere with or modify the properties of the reconstituted L-AChR1.1. We prepared oocytes injected with cRNAs to express the H. contortus L-AChR1.1 and supplemented this with an increasing (0.2, 1, 5 times) concentration of cRNA for UNC-29.2 relative to UNC-29.1.
as §1, §2, §3

[5] = test system: C. elegans L-AChR subunits (Cel-unc-63, Cel-unc-38, Cel-lev-8, Cel-lev-1) with Hco-unc-29 paralog; experiment: Two-electrode voltage clamp of C. elegans / H. contortus AChR subunit admixtures in Xenopus oocytes; type: cell-based
Excerpt: To confirm that the LEV sensitivity rescue could be due to the functional incorporation of parasite protein into the C. elegans L-AChR, we injected into Xenopus oocytes, cRNA admixtures of the four essential C. elegans L-AChR subunits: Cel-unc-63, Cel-unc-38, Cel-lev-8 and Cel-lev-1, the three H. contortus accessory proteins: ric-3, unc-50 and unc-74, and the Cel-unc-29 or each Hco-unc-29 paralog in turn. Reconstitution of the C. elegans L-AChR with Cel-unc-29 produced functional channels as previously described, confirming that the H. contortus accessory proteins are functional between species. Omitting unc-29 produced no response, so any current produced using parasite genes must involve their incorporation into a functional L-AChR. […] UNC-29.1 produced an average of 500 μA currents, while the other three produced reproducible currents below 200 nA with UNC-29.2 producing the smallest response on average (S1 Fig).
as §1, with “Inc.). […]” for “Inc.).”
(§4) Two-electrode voltage-clamp experiments were carried out using a perfusion system connected to a flat RC-1Z chamber (Harvard Apparatus). […] Data were collected and analyzed using Clampex 9.2 and Clampfit 9.2 (Axon Instruments, Sunnyvale, CA, USA). Traces were filtered at 30 Hz and analyzed using GraphPad Prism 5.0 software (GraphPad Software, San Diego, CA, USA). […]

C. elegans = details: 200 μM LEV
Protocol: The Cel-unc-29, unc-29.1, unc-29.2, unc-29.3, unc-29.4 cDNA sequences were amplified by PCR using primers containing restriction site inserted with restriction enzymes in the plasmid backbone (Addgene L2534) containing the myo-3 promoter. Strains used in these study were the wild-type Bristol isolate N2 and the LEV resistant isolate CB1072: unc-29 (e1072). Worms were grown on Escherichia coli OP50 seeded NGM (Nematode Growth Medium) plates at 20°C and maintained using standard culture methods. Hermaphrodite young adult C. elegans were transformed by microinjection of plasmids into the gonads. […] Successful transformation was determined by the observation of fluorescence of the selection marker in the two targeted neurones of the head region. Only worms carrying the selection marker were used for the behavioural and pharmacological analysis.
Three day old adult fluorescent worms were transferred onto unseeded NGM plates, equilibrated at 20°C, containing 200 μM LEV. Drug induced paralysis was determined by visual inspection every 15 min. Worms were defined as paralyzed if no movement was observed within five seconds after prodding the tail with a hair tip. Statistics. Experimental data are shown as mean ± S.D. Statistical comparisons between the unc-29 (e1072) mutant strain and the transformed lines were done using two-way ANOVA with Bonferroni’s multiple comparison post test. A level of p < 0.05 was considered significant.

[6] = test system: H. contortus L-AChR1.2 (UNC-63, UNC-38, ACR-8, UNC-29.2); type: cell-based, Haemonchus contortus; details: for current in response to 100 μM perfusion: UNC-29.1 replaced by UNC-29.2, n = 18
Protocol: as §1, §2
as §4, with “Apparatus). Glass electrodes were filled with 3M KCl and checked for resistance between 1 and 3 MΩ. The oocyte bath was connected to the ground through a 3 M KCl agar bridge.” for “Apparatus).”

[7] = L-AChR1.3, agonists at 100 μM, normalized to 100 μM acetylcholine, read-out: Max. Current ± S.E.
[8] = L-AChR1.1, agonists at 100 μM, normalized to 100 μM acetylcholine, read-out: Max. Current ± S.E.

Compound: C[N+](C)(CCOc1ccccc1)Cc1ccccc1 [Bephenium, bephenium hydroxynaphtoate]
- Emax at 100 µM [1, 7]: 9.59 ± 0.83%
- Emax at 100 µM [2, 8]: 13.9 ± 1.7%
- Emax at 100 µM ([3]; L-AChR1.4): 6.45 ± 0.84%

Compound: c1ccc([C@H]2CN3CCSC3=N2)cc1 [LEV, (-)-tetramisole hydrochloride]
- effect of unc-29.2 cRNA on the pharmacological response [4]: no effect
- EC50 ([4]; 29.1 : 29.2 cRNA 1 : 0.2): 3.05 ± 0.44 µM
- Hill ([4]; 29.1 : 29.2 cRNA 1 : 0.2): 0.69 ± 0.09
- EC50 ([4]; 29.1 : 29.2 cRNA 1 : 1): 2.41 ± 0.08 µM
- Hill ([4]; 29.1 : 29.2 cRNA 1 : 1): 0.71 ± 0.13
- EC50 ([4]; 29.1 : 29.2 cRNA 1 : 5): 3.7 ± 0.35 µM
- Hill ([4]; 29.1 : 29.2 cRNA 1 : 5): 0.77 ± 0.13
- EC50 [1]: 1.15 ± 0.08 µM
- Hill [1]: 1.13 ± 0.09
- Relative response (LEV versus ACh) [1]: partial agonist; also recorded: LEV < ACh
- Emax at 100 µM ([1]; read-out: LEV current, % of the ACh current): 65.2 ± 9.9%
- Emax ([1]; read-out: Max. Current ± S.E.): 65.2 ± 3.5%
- Hill [2]: 0.84 ± 0.05
- Relative response (LEV versus ACh) [2]: superagonist; also recorded: LEV > ACh
- EC50 ([2]; EC50): 4.9 µM and 4.91 µM
- Emax at 100 µM ([2]; read-out: LEV current, % of ACh response): 125%
- Emax ([2]; read-out: Max. Current ± S.E.): 125 ± 3.76%
- EC50 [3]: 2.48 ± 0.35 µM
- Hill [3]: 0.90 ± 0.12
- Relative response (LEV versus ACh) [3]: LEV = ACh
- Emax [3]: 94.7 ± 2.93%
- current on perfusion of 100 μM LEV relative to the ACh response ([5]; each Hco-unc-29 paralog): comparable between subunit copies
- paralysis on exposure to LEV (C. elegans; mutant unc-29(e1072) (CB1072), two hours): barely affected
- paralysis on exposure to LEV (C. elegans; unc-29(e1072) transfected with Cel-unc-29): complete rescue of LEV sensitivity
- paralysis on exposure to LEV (C. elegans; unc-29(e1072) transfected with each of the four H. contortus unc-29 copies): paralyzed after two hours
- paralysis on exposure to LEV (C. elegans; wild-type N2 worms): rapid paralysis that was complete after an hour
- current in response to 100 μM perfusion [6]: failed to produce any detectable current

Compound: Br.CO[C@H]1CC=C2CCN3CCC4=C(CC(=O)OC4)[C@]23C1 [DHßE, Dihydro-berythroidine hydrobromide]
- blocking of ACh elicited currents ([1]; L-AChR1.3, dTC 100 μM, DHβE 10 μM, MECA 30 μM, 100 μM ACh): weak average inhibition
- Max Inhibition ± S.E. ([1]; L-AChR1.3, inhibition of 100 μM ACh current, dTC 100 μM, DHβE 10 μM, MECA 30 μM): 23.55 ± 1.94
- blocking of ACh elicited currents ([2]; L-AChR1.1, dTC 100 μM, DHβE 10 μM, MECA 30 μM, 100 μM ACh): weak average inhibition
- Max. Inhibition ± S.E. ([2]; L-AChR1.1, inhibition of 100 μM ACh current, dTC 100 μM, DHβE 10 μM, MECA 30 μM): 15.98 ± 2.16
- blocking of ACh elicited currents ([3]; L-AChR1.4, dTC 100 μM, DHβE 10 μM, MECA 30 μM, 100 μM ACh): weak average inhibition
- Max Inhibition ± S.E. ([3]; L-AChR1.4, inhibition of 100 μM ACh current, dTC 100 μM, DHβE 10 μM, MECA 30 μM): 16.51 ± 5.73

Compound: CN1CCC[C@H]1c1cccnc1 [Nicotine, (-)-nicotine hydrogen tartrate]
- Emax ([1]; read-out: Max. Current ± S.E.): 6.79 ± 1.46%
- Emax ([2]; read-out: Max. Current ± S.E.): 4.7 ± 1.05%
- Emax [3]: 1.52 ± 0.47%

Compound: CC(=O)OCC[N+](C)(C)C [ACh, Acetylcholine chloride]
- effect of unc-29.2 cRNA on the pharmacological response [4]: no effect
- Hill ([4]; 29.1 : 29.2 cRNA 1 : 0.2): 0.91 ± 0.08
- Hill ([4]; 29.1 : 29.2 cRNA 1 : 1): 0.96 ± 0.13
- Hill ([4]; 29.1 : 29.2 cRNA 1 : 5): 1.09 ± 0.10
- Max ACh Current ([1]; L-AChR1.3 (Hco-UNC-29.3)): ~1.5 μA
- Hill ([1]; L-AChR1.3, Hill coefficient of concentration-response curve): 0.89 ± 0.05
- Emax at 100 µM [1, 7]: 100%
- Max ACh Current ([2]; L-AChR1.1 (Hco-UNC-29.1)): ~1.5 μA
- Hill ([2]; L-AChR1.1, Hill coefficient of concentration-response curve): 0.88 ± 0.05
- Emax at 100 µM [2, 8]: 100%
- Max ACh Current ([3]; L-AChR1.4 (Hco-UNC-29.4)): ~500 nA
- Hill ([3]; L-AChR1.4, Hill coefficient of concentration-response curve): 1.12 ± 0.04
- Emax at 100 µM ([3]; L-AChR1.4): 100%
- average current on perfusion of 100 μM ACh ([5]; admixture with UNC-29.1): 500 μA
- current on perfusion of 100 μM ACh ([5]; admixtures with the other three paralogs (UNC-29.2, UNC-29.3, UNC-29.4)): below 200 nA
- current in response to 100 μM perfusion [6]: failed to produce any detectable current
- Max ACh Current ([6]; receptor with Hco-UNC-29.2): 0 μA
